Literature values in patent publication US20110064750A1, “METHOD AND KIT FOR TREATING NICOTINE ADDICTION” (Nabi Biopharmaceuticals, priority 2009, published 2011).
Like-named read-outs stand apart in the source and are kept apart here.

Legend:
α4β2 nicotinic receptors = α4β2 nicotinic receptors (Homo sapiens, UniProt P17787+P43681); conditions: stimulating receptor-mediated activity at a significantly lower level than nicotine
smoking abstinence [1] = conditions: 12 week course, varenicline 1.0 mg bid, bupropion 150 mg SR bid, carbon-monoxide confirmed
smoking cessation = conditions: for Time at which efficacy generally is apparent: previous studies
[2] = salt form, powder
[3] = biological target: α3β2 nicotinic acetylcholine receptors (Homo sapiens, UniProt P17787+P32297); conditions: blocking nicotine activation of nAChRs
Chain of α3β2 nicotinic acetylcholine receptors (P32297 32-505): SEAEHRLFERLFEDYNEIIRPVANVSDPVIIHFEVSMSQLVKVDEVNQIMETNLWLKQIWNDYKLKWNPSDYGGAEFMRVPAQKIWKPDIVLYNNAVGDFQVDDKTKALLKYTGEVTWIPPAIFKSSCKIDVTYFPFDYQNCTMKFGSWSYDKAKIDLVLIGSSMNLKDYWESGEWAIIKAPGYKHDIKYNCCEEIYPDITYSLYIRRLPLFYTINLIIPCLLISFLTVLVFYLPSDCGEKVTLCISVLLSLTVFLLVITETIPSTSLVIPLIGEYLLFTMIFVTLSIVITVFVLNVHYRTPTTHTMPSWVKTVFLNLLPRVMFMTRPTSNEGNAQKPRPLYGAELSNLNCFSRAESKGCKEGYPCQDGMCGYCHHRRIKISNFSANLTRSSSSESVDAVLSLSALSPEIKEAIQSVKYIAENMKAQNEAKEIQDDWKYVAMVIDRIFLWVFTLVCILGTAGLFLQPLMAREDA
Chain of α3β2 nicotinic acetylcholine receptors (P17787 26-502): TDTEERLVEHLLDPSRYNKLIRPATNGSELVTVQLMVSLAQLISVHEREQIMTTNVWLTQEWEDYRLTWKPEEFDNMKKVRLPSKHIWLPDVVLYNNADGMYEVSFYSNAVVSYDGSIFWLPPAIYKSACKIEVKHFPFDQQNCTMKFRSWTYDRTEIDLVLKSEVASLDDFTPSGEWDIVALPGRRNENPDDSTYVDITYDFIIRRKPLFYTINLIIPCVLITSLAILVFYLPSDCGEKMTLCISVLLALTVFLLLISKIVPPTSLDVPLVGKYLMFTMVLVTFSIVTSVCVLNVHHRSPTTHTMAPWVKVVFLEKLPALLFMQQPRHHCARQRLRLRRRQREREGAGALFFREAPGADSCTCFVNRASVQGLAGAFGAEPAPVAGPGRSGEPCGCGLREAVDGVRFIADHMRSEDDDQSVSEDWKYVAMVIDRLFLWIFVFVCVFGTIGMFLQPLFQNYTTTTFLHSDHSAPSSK

[4] = system: neuronal uptake of norepinephrine and dopamine
[5] = biological target: α4β2 nicotinic acetylcholine receptors (Homo sapiens, UniProt P17787+P43681); conditions: blocking nicotine activation of nAChRs
Chain of α4β2 nicotinic acetylcholine receptors (P43681 29-627 limits assumed): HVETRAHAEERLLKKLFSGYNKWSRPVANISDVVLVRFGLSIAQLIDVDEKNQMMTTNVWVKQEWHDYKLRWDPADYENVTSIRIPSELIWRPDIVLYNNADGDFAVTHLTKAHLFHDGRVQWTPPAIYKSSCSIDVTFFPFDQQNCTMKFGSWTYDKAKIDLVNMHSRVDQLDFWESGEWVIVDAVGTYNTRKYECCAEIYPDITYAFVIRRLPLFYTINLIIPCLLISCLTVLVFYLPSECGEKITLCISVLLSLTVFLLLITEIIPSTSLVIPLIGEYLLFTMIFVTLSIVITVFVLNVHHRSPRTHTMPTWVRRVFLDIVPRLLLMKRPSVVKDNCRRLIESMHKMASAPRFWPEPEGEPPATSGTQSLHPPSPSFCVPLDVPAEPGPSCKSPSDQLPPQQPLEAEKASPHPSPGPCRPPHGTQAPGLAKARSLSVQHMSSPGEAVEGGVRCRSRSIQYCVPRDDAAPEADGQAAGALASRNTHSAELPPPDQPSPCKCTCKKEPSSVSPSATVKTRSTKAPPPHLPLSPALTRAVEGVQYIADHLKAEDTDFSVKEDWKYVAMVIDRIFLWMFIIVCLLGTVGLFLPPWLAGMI
Chain of α4β2 nicotinic acetylcholine receptors (P17787 26-502): as the sequence (P17787 26-502) above

smoking abstinence [6] = system: smoking abstinence

Chain of α4β2 nicotinic receptors (P43681 29-627 limits assumed): as the sequence (P43681 29-627 limits assumed) above
Chain of α4β2 nicotinic receptors (P17787 26-502): as the sequence (P17787 26-502) above

c1cnc2cc3c(cc2n1)[C@@H]1CNC[C@H]3C1 [Varenicline, 7,8,9,10-tetrahydro-6,10-methano-6H-pyrazino[2,3-h][3]benzazpine, (2R,3R)-2,3-dihydroxybutanedioate(1:1)]
Agonist activity at α4β2 nicotinic receptors (α4β2 nicotinic receptors): low level agonist
Continuous Abstinence Rate (Wks 9-12) (smoking abstinence [1]; Study A): 21%
Continuous Abstinence Rate (Wks 9-12) (smoking abstinence [1]; Study B): 22%
Time at which efficacy generally is apparent (smoking cessation): one week after the first dose
Solubility in water [2]: highly soluble in water

CC(NC(C)(C)C)C(=O)c1cccc(Cl)c1.Cl (stereo not shown) [Bupropion, Bupropion hydrochloride]
Times more effective in blocking α3β2 than α7 [3]: 50 times
Inhibition of the neuronal uptake of norepinephrine and dopamine [4]: relatively weak inhibitor
Times more effective in blocking α4β2 than α7 [5]: 12 times
Continuous Abstinence Rate (Wks 9-12) (smoking abstinence [1]; Study A): 16%
Continuous Abstinence Rate (Wks 9-12) (smoking abstinence [1]; Study B): 14%
Inhibition of monoamine oxidase (monoamine oxidase): does not inhibit
Time at which efficacy may diminish (smoking cessation; even though administration is ongoing): after about six or seven weeks
Chances of quitting smoking compared with placebo (smoking cessation; in vivo): double
Nicotine craving and nicotine withdrawal symptoms (smoking cessation; in vivo): lower
Time at which efficacy generally is apparent (smoking cessation): one week after the first dose
Abstinence from week 4 through Week 7 (4-week quit) (smoking abstinence [6]; 100 mg/day): 22%
Abstinence from week 4 through Week 12 (smoking abstinence [6]; 100 mg/day): 20%
Abstinence from week 4 through Week 26 (smoking abstinence [6]; 100 mg/day): 16%
Abstinence from week 4 through Week 7 (4-week quit) (smoking abstinence [6]; 150 mg/day): 27%
Abstinence from week 4 through Week 12 (smoking abstinence [6]; 150 mg/day): 20%
Abstinence from week 4 through Week 26 (smoking abstinence [6]; 150 mg/day): 18%
Abstinence from week 4 through Week 7 (4-week quit) (smoking abstinence [6]; 300 mg/day): 36%
Abstinence from week 4 through Week 12 (smoking abstinence [6]; 300 mg/day): 25%
Abstinence from week 4 through Week 26 (smoking abstinence [6]; 300 mg/day): 19%
Solubility in water [2]: highly soluble in water
